{
  "source": "patent US7601717B2",
  "about": "“Pterin analogs” (BioMarin Pharmaceutical Inc., priority 2008, dated 2009)",
  "key": {"[1]": {"system": "human umbilical vein endothelial cells (HUVEC)", "assay": "Nitric oxide production (nitrite+nitrate) in NAS-treated HUVEC", "format": "cell-based", "conditions": "5-22 hours treatment", "method": "Cultured human umbilical vein endothelial cells (HUVEC) were pretreated with 3 mM N-acetylserotonin (NAS), an inhibitor of the enzyme sepiapterin reductase. Inhibition of this pathway typically results in loss of endogenous BH4, depressing the endogenous eNOS activity far below normal and provides an assay to test for restoration of eNOS activity.\nThus, subconfluent HUVECs were seeded in a 24-well plate and grown overnight in EGM2 medium (full growth medium). The next morning, fresh medium was added to the cells (300 μL/well), 3 mM N-acetylserotonin (NAS), an inhibitor of the enzyme sepiapterin reductase (a member of the synthesis pathway for endogenous BH4) was added to the cells to decrease the endogenous BH4 levels. After an incubation of 1.5 hours, 50, 100, or […] BH4 or compound of Example 5, Example 6, Example 7, or Example 9 were added to the cells. The cells were allowed to react with the BH4 or the compound of Example 5, Example 7, or Example 9 for 5-22 hours. The production of NO was then measured as changes in total (nitrite+nitrate) by the Griess reaction subsequent to nitrate reductase treatment. 90 μL of reaction mixture (25 mM Tris-HCL, pH7.4, 1 μM FAD, 1 μM FMN, 100 μM L-Arginin 2.5 mM CaCl2, 1 mM NADPH, 0.04 mg/ml Calmodulin) was mixed with 5 μl of eNOS (15 units/ml) and 5 μl of BH4 or BH4 analogs (1, 10, 100 μM), followed by incubation in a 37° C. water bath for 90 minutes. Then 100 μl of water and 20 μl of the nitrite fluorescent probe DAN (2,3-diaminonaphthalene, 316 μM) were added to each reaction and incubated at room temperature for 10 minutes. The dye DAN reacts with nitrite to yield the fluorescent product naphthotriazole. The reaction was then stopped by adding 10 μl of NaOH (2.8 M), and the fluorescence of the samples was read using excitation frequency 375 nm and emission frequency 415 nm. The percentage of nitrite+nitrate with BH4 or compound of Example 5, Example 7, or Example 9 is shown in FIG. 17 (after 5 hours); FIG. 18 (after 17 hours); and FIG. 19 (after 22 hours). The results for Example 6 are shown in FIG. 20 (after 5 hours) and FIG. 21 (after 20 hours)."}, "[2]": {"molecular_target": "eNOS (Homo sapiens, UniProt P29474)", "assay": "Cell-free eNOS activity assay reconstituted from purified components", "format": "biochemical", "conditions": "1, 10, 100 μM, 90 minutes at 37° C., nitrite by DAN fluorescence", "method": "Also tested was the effect of BH4 analogs compared to free BH4 on stimulation of eNOS activity in a cell-free assay system reconstituted from purified components. 90 μL of reaction mixture (25 mM Tris-HCL, pH7.4, 1 μM FAD, 1 μM FMN, 100 μM L-Arginine, 2.5 mM CaCl2, 1 mM NADPH, 0.04 mg/ml Calmodulin) was mixed with 5 μl of eNOS (15 units/ml) and 5 μl of BH4 or BH4 analogs (1, 10, 100 μM), followed by incubation in a 37° C. water bath for 90 minutes. Then 100 μl of water and 20 μl of the nitrite fluorescent probe DAN (2,3-diaminonaphthalene, 316 μM) were added to each reaction and incubated at room temperature for 10 minutes. The dye DAN reacts with nitrite to yield the fluorescent product naphthotriazole. The reaction was then stopped by adding 10 μl of NaOH (2.8 M), and the fluorescence of the samples was read using excitation frequency 375 nm and emission frequency 415 nm."}, "[3]": {"system": "Spontaneously Hypertensive rats (SHR)", "assay": "Anti-hypertensive effect, tail-cuff systolic blood pressure in SHR", "format": "in vivo, rat", "conditions": "SHR; for decrease in systolic blood pressure (SBP): 3 weeks", "method": "This study was to determine if the BH4 analogs have a similar hypotensive effect and to determine the steady state pharmacokinetics (PK) profiles of plasma BH4 concentrations.\nMale Wistar-Kyoto (WKY) rats and SHR rats (Elevage Janvier, France, 7 weeks old) were housed seven days prior to the beginning of experiments with free access to standard chow and water and maintained on an inversed 12 h dark/light cycle (10:00/22:00). After a one week acclimation period, the animals were trained to the tail-cuff system during one week (3 sessions). The following week, two baseline measurements of blood pressure were performed.\nThe rats (10 weeks old) then received respective treatments of water, vehicle, 2, 10, or 30 mg/kg/day of BH4 analog (Example 5, Val-BH4) or 100 mg/kg/day BH4 by oral gavage (8 mL/kg, dissolved in 100 μM ascorbic acid) performed once a day during 21 days of treatment. The doses of BH4 analog were prepared as mg/kg equivalents of BH4 (calculated using BH4 and BH4 analog 2HCl molecular weights). Body weight was monitored 3 times per week and the most recent body weight was used to adjust drug and vehicle daily intake. Seven experimental groups of rats were evaluated: Group 1—normotensive WKY rats and water gavage; Group 2—hypertensive SHR rats and water gavage; Group 3—hypertensive SHR rats and vehicle gavage; Group 4—hypertensive SHR rats and BH4 100 mg/kg/day gavage; Group 5—hypertensive SHR rats and BH4 analog 2 mg/kg/day gavage; Group 6—hypertensive SHR rats and BH4 analog 10 mg/kg/day gavage; Group 7—hypertensive SHR rats and 30 mg/kg/day BH4 analog gavage. To account for animal loss or animal disqualification during experimental handling, 10 rats were used in each group, with the expectation to obtain interpretable results for at least 8. Systolic blood pressure (SBP) and heart rate (HR) were measured twice weekly during the 3-week treatment period.\nSystolic blood pressure (SBP) and heart rate (HR) were measured using the tail-cuff method, twice before the beginning of the treatment and twice weekly during the 3 week treatment period (6 measurements during the treatment period). Rats were placed in a plastic restraint and warmed to […]. A pneumatic pulse sensor was attached to the tail. After cuff inflation, SBP was measured and HR was determined by counting pulse numbers per minute. Data for each rat was taken an average of at least 4 stable readings. At least 10 cuff inflations were performed for each BP measurement."}, "[4]": {"assay": "Pharmacokinetics and bioavailability, single intravenous or oral doses, partial Latin square crossover", "format": "in vivo, male cynomolgus monkeys", "conditions": "male, cynomolgus monkey, plasma; intravenous; title 5 mg/kg, text 2 mg/kg; n=6"}},
  "note": "Structures can show the parent of a compound that is named as a salt.",
  "data": [
    {"smiles": "CC(C)[C@H](N)C(=O)O[C@@H](C)[C@H](O)[C@H]1CNc2nc(N)[nH]c(=O)c2N1", "note": "[Example 5, 2-Amino-3-methyl-butyric acid 2-(2-amino-4-oxo-3,4,5,6,7,8-hexahydro-pteridin-6-yl)-2-hydroxy-1-methyl-ethyl ester dihydrochloride]", "values": [
      {"measurement": "NO production (nitrite+nitrate)", "setting": "[1]", "result": "increased NO production in a dose-dependent manner"},
      {"measurement": "potentiation of eNOS activity", "setting": "[2]", "result": "did not significantly potentiate eNOS activity"},
      {"measurement": "decrease in systolic blood pressure (SBP)", "setting": "[3]; 2 mg/kg/day oral gavage (BH4 equivalents)", "result": 6.8, "unit": "mmHg"},
      {"measurement": "decrease in SBP compared with BH4 100 mg/kg", "setting": "[3]; 10 mg/kg/day during 3 weeks, FIG. 31", "result": "decreased SBP to the same extent as a 10-fold greater dose of BH4"},
      {"measurement": "decrease in systolic blood pressure (SBP)", "setting": "[3]; 10 mg/kg/day oral gavage (BH4 equivalents)", "result": 13.9, "unit": "mmHg"},
      {"measurement": "decrease in systolic blood pressure (SBP)", "setting": "[3]; 30 mg/kg/day oral gavage (BH4 equivalents)", "result": 13.7, "unit": "mmHg"},
      {"measurement": "AUC(0-inf)", "setting": "[4]", "result": 5.24, "unit": "µM·h"},
      {"measurement": "AUC(0-t)", "setting": "[4]", "result": 4.17, "unit": "µM·h"},
      {"measurement": "Cmax", "setting": "[4]", "result": 13.1, "unit": "µM"},
      {"measurement": "Tmax", "setting": "[4]", "result": 4.8, "unit": "min"}
    ]}
  ]
}
